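Each compound was tested at five concentrations against cells in 96-well plates for 48 hours. GI50 = concentration required for 50% inhibition of growth.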 The source made the active and inactive calls. Cut-off read from the data, not from the text of the source: active = GI50 up to about 1.1 µM and inactive = higher.
Assays:
Experiment in all cases: DTP human tumour cell line panel, 48 h
[1] = tested on: HL-60
[2] = tested on: HOP-18
[3] = tested on: HOP-92
[4] = tested on: KM12
[5] = tested on: Malme-3M
[6] = tested on: NCI-H226
[7] = tested on: NCI-H460
[8] = tested on: OVCAR-3
[9] = tested on: SF-268
[10] = tested on: SF-295
[11] = tested on: SF-539
[12] = tested on: SK-MEL-5
[13] = tested on: SN12C
[14] = tested on: SNB-19
[15] = tested on: SNB-75
[16] = tested on: UACC-257
[17] = tested on: UACC-62
[18] = tested on: ACHN
[19] = tested on: MDA-MB-435
[20] = tested on: T47D

Row | SMILES | GI50 [1] | GI50 [2] | GI50 [3] | GI50 [4] | GI50 [5] | GI50 [6] | GI50 [7] | GI50 [8] | GI50 [9] | GI50 [10] | GI50 [11] | GI50 [12] | GI50 [13] | GI50 [14] | GI50 [15] | GI50 [16] | GI50 [17] | GI50 [18] | GI50 [19] | GI50 [20]
1 | COC(=O)CCC1=NOC(CC2CC(CCC(=O)OC)=NO2)C1 (stereo not given) | > 100 µM (inactive) | > 100 µM (inactive) | > 100 µM (inactive) | > 100 µM (inactive) | > 100 µM (inactive) | > 100 µM (inactive) | > 100 µM (inactive) | > 100 µM (inactive) | > 100 µM (inactive) | > 100 µM (inactive) | > 100 µM (inactive) | > 100 µM (inactive) | > 100 µM (inactive) | > 100 µM (inactive) | > 100 µM (inactive) | > 100 µM (inactive) | > 100 µM (inactive) | – | – | –
2 | O=C(Cc1nc(-c2ccccc2)cc(=O)n1-c1ccccc1Cl)c1ccncc1 | 9.1 µM (inactive) | > 100 µM (inactive) | > 100 µM (inactive) | > 100 µM (inactive) | > 100 µM (inactive) | > 100 µM (inactive) | > 100 µM (inactive) | > 100 µM (inactive) | > 100 µM (inactive) | > 100 µM (inactive) | > 100 µM (inactive) | > 100 µM (inactive) | > 100 µM (inactive) | > 100 µM (inactive) | 25.2 µM (inactive) | > 100 µM (inactive) | > 100 µM (inactive) | > 100 µM (inactive) | – | –
3 | Cc1nc2c(o1)C(=O)c1ccccc1/C2=N\c1ccccc1 | 2.42 µM (inactive) | 1.85 µM (inactive) | 2.27 µM (inactive) | 6.07 µM (inactive) | 1.36 µM (inactive) | 13.6 µM (inactive) | 5.66 µM (inactive) | 1.59 µM (inactive) | 4.01 µM (inactive) | 4.53 µM (inactive) | 2.9 µM (inactive) | 1.35 µM (inactive) | 2.04 µM (inactive) | 3.96 µM (inactive) | 2.12 µM (inactive) | 2.05 µM (inactive) | 2.46 µM (inactive) | 3.18 µM (inactive) | 0.352 µM (active) | 2.52 µM (inactive)
4 | O=C1NC(=O)c2c1n(Cc1ccccc1)c(=O)n2Cc1ccccc1 | 87.7 µM (inactive) | > 100 µM (inactive) | 25.8 µM (inactive) | > 100 µM (inactive) | > 100 µM (inactive) | > 100 µM (inactive) | 86.7 µM (inactive) | > 100 µM (inactive) | > 100 µM (inactive) | > 100 µM (inactive) | 36 µM (inactive) | > 100 µM (inactive) | > 100 µM (inactive) | > 100 µM (inactive) | > 100 µM (inactive) | > 100 µM (inactive) | 84.3 µM (inactive) | > 100 µM (inactive) | – | –
5 | O=C1NC(=S)NC(=O)C1=Cc1ccc[nH]1 | 5.27 µM (inactive) | 36.4 µM (inactive) | 19.6 µM (inactive) | 3.48 µM (inactive) | 19.9 µM (inactive) | 14.5 µM (inactive) | 8.11 µM (inactive) | 7.38 µM (inactive) | 22.6 µM (inactive) | 10.5 µM (inactive) | 15.1 µM (inactive) | 26.5 µM (inactive) | 10.6 µM (inactive) | 25.8 µM (inactive) | 18 µM (inactive) | 20.9 µM (inactive) | 16.7 µM (inactive) | 15 µM (inactive) | – | –
6 | C=C(C[N+](C)(C)C)N/N=C/c1oc(-c2ccc(OC)c(OC)c2)c(-c2ccc(OC)c(OC)c2)c1[N+](=O)[O-] | 8.63 µM (inactive) | 22.1 µM (inactive) | 19.6 µM (inactive) | 17.1 µM (inactive) | > 10 µM (inactive) | 27.3 µM (inactive) | 18.5 µM (inactive) | 24.8 µM (inactive) | 17.9 µM (inactive) | 17.5 µM (inactive) | 16.7 µM (inactive) | 16.4 µM (inactive) | 16.7 µM (inactive) | 34.4 µM (inactive) | 19.4 µM (inactive) | 20.2 µM (inactive) | > 10 µM (inactive) | 15.4 µM (inactive) | – | –
7 | N#CN1CC[C@@H]2CC3(CCC2C1)OCCO3 (stereo not given in full) | > 100 µM (inactive) | > 100 µM (inactive) | > 100 µM (inactive) | > 100 µM (inactive) | > 100 µM (inactive) | > 100 µM (inactive) | > 100 µM (inactive) | > 100 µM (inactive) | > 100 µM (inactive) | > 100 µM (inactive) | > 100 µM (inactive) | > 100 µM (inactive) | > 100 µM (inactive) | > 100 µM (inactive) | > 100 µM (inactive) | > 100 µM (inactive) | > 100 µM (inactive) | > 100 µM (inactive) | – | –
8 | CCOC(=O)c1[nH]c(CN(C)Cc2[nH]c(C(=O)OCC)c(C)c2C(=O)OCc2ccccc2)c(C(=O)OCc2ccccc2)c1C | 3.96 µM (inactive) | > 100 µM (inactive) | 2.42 µM (inactive) | 7.45 µM (inactive) | 40.3 µM (inactive) | 12.7 µM (inactive) | 5.58 µM (inactive) | 10.4 µM (inactive) | 10.7 µM (inactive) | 19.3 µM (inactive) | 8.47 µM (inactive) | 6.44 µM (inactive) | 6.19 µM (inactive) | 12.9 µM (inactive) | 3.3 µM (inactive) | 21.4 µM (inactive) | 20.4 µM (inactive) | 18.4 µM (inactive) | – | –
